Here are results for twelve compounds from article PMC7531004, “Discovery of gramicidin A analogues with altered activities by multidimensional screening of a one-bead-one-compound library” (Nature Communications, 2020).

Where a SMILES comes first, the peptide text is derived from it. [ ]: non-standard residue; d: D form. The star is where a group is joined. NHCH2CH2OH = OCCN*; For = O=C*

For series [1] the following is noted: cell viability/%. In short, it runs like this: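 P388 cells at 1 × 10^4 cells/mL (final) were exposed to library peptides (stocks diluted 250-fold in RPMI1640/10% FBS) for 92 h at 37 °C, 5% CO2. Viable cells were counted by WST-1/1-methoxy PMS (4 h), absorbance 415 nm, and expressed as cell viability (%).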
Series [2] has as its system Streptococcus pyogenes SSI-9. Briefly: Antibacterial activity assay of bead-derived peptides (three concentrations). The series is classed as cell-based. The note with it: S. pyogenes, bead-derived peptide solution, three concentrations. Set-up: key: +++: inhibition by the 640-fold diluted peptide solution; ++: inhibition by the 160-fold diluted solution; +: inhibition by the 40-fold diluted solution; -: no inhibition. In short, it runs like this: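 Undiluted, 4-fold and 16-fold DMSO-diluted peptide stocks; S. pyogenes SSI-9, 2 × 10^5 CFU, cation-adjusted MHB (50 mg/L Ca2+, 25 mg/L Mg2+) + 5% laked horse blood; 37 °C, 18 h; readout = cell pellet visible or not.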

Series [3] in a line: H+/Na+ transport assay of bead-derived peptides (one-point).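 Further: relative to parent gramicidin A activity set to 1.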 The series is classed as biochemical. Set-up: key: relative activity; mean of two control wells = 1.00. The note with it: bead-derived peptide solution, EYPC/EYPG LUVs. An outline of the steps:
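H+/Na+ transport is monitored through pyranine fluorescence in freshly extruded LUVs after a 30-min room-temperature vortex with each library peptide at a single concentration. Signals are normalized to detergent (Triton X-100) and untreated controls.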

In the case of `CC(C)C[C@@H](NC(=O)[C@H](C)NC(=O)[C@H](NC(=O)[C@H](C)NC(=O)CNC(=O)[C@@H](NC=O)C(C)C)C(C)C)C(=O)N[C@H](C(=O)N[C@@H](C(=O)N[C@@H](Cc1c[nH]c2ccccc12)C(=O)N[C@H](CC(C)C)C(=O)N[C@@H](Cc1c[nH]c2ccccc12)C(=O)N[C@H](CC(C)C)C(=O)N[C@@H](Cc1c[nH]c2ccccc12)C(=O)N[C@H](CC(C)C)C(=O)N[C@@H](Cc1c[nH]c2ccccc12)C(=O)NCCO)[C@H](C)O)C(C)C` [compound 3956] (For-VGA[dV]A[dL]V[dT]W[dL]W[dL]W[dL]W-NHCH2CH2OH), in series [1], the viability (in general, a per cent measure of how many cells are alive, often set against a control) is 100%. Also, the antibacterial activity entry in series [2] is listed as “+”. For the same compound, in series [3], the “H+/Na+ transport activity normalized against the value of 1 (1.00)” value (“H+/Na+ transport activity normalized” for short) came to 1.12.
On the same counts, the results for `CNC(=O)C[C@@H](NC(=O)[C@@H](NC(=O)[C@H](NC(=O)[C@H](C)NC(=O)[C@@H](CC(C)C)NC(=O)[C@H](C)NC(=O)CNC(=O)[C@@H](NC=O)C(C)C)C(C)C)C(C)C)C(=O)N[C@@H](Cc1c[nH]c2ccccc12)C(=O)N[C@H](CC(C)C)C(=O)N[C@@H](Cc1c[nH]c2ccccc12)C(=O)N[C@H](CC(C)C)C(=O)N[C@@H](Cc1c[nH]c2ccccc12)C(=O)N[C@H](CC(C)C)C(=O)N[C@@H](Cc1c[nH]c2ccccc12)C(=O)NCCO` [compound 4143] (For-VGA[dL]A[dV]V[dD](NHMe)W[dL]W[dL]W[dL]W-NHCH2CH2OH) are 100%, “-” and 1.22.
On the same counts, the results for `CNC(=O)C[C@@H](NC(=O)[C@@H](NC(=O)[C@@H](CC(C)C)NC(=O)[C@H](C)NC(=O)[C@@H](CC(C)C)NC(=O)[C@H](C)NC(=O)CNC(=O)[C@@H](NC=O)C(C)C)C(C)C)C(=O)N[C@@H](Cc1c[nH]c2ccccc12)C(=O)N[C@H](CC(C)C)C(=O)N[C@@H](Cc1c[nH]c2ccccc12)C(=O)N[C@H](CC(C)C)C(=O)N[C@@H](Cc1c[nH]c2ccccc12)C(=O)N[C@@H](C(=O)N[C@@H](Cc1c[nH]c2ccccc12)C(=O)NCCO)C(C)C` [compound 4186] (For-VGA[dL]A[dL]V[dD](NHMe)W[dL]W[dL]W[dV]W-NHCH2CH2OH) are 98.7%, “-” and 1.44.
For `CC(C)C[C@@H](NC(=O)[C@H](C)NC(=O)[C@H](NC(=O)[C@H](C)NC(=O)CNC(=O)[C@@H](NC=O)C(C)C)C(C)C)C(=O)N[C@H](C(=O)N[C@@H](C(=O)N[C@@H](Cc1c[nH]c2ccccc12)C(=O)N[C@H](CC(C)C)C(=O)N[C@@H](Cc1c[nH]c2ccccc12)C(=O)N[C@@H](C(=O)N[C@@H](Cc1c[nH]c2ccccc12)C(=O)N[C@H](CC(C)C)C(=O)N[C@@H](Cc1c[nH]c2ccccc12)C(=O)NCCO)[C@H](C)O)[C@H](C)O)C(C)C` [compound 4195] (For-VGA[dV]A[dL]V[dT]W[dL]W[dT]W[dL]W-NHCH2CH2OH), in that order: 90.6%, “-” and 1.19.
For the compound `CNC(=O)C[C@@H](NC(=O)[C@H](Cc1c[nH]c2ccccc12)NC(=O)[C@@H](CC(C)C)NC(=O)[C@H](Cc1c[nH]c2ccccc12)NC(=O)[C@@H](CC(C)C)NC(=O)[C@@H](NC(=O)[C@H](NC(=O)[C@H](C)NC(=O)[C@H](NC(=O)[C@H](C)NC(=O)CNC(=O)[C@@H](NC=O)C(C)C)C(C)C)C(C)C)C(C)C)C(=O)N[C@@H](Cc1c[nH]c2ccccc12)C(=O)N[C@H](CC(C)C)C(=O)N[C@@H](Cc1c[nH]c2ccccc12)C(=O)NCCO` [compound 4203] (For-VGA[dV]A[dV]V[dL]W[dL]W[dD](NHMe)W[dL]W-NHCH2CH2OH), the viability in series [1] was 100%. Moreover, the antibacterial activity entry in series [2] is “-”. In series [3], the “H+/Na+ transport activity normalized” value stood at 1.16.
In series [1], `CC(C)[C@H](NC=O)C(=O)NCC(=O)N[C@@H](C)C(=O)N[C@@H](C(=O)N[C@@H](C)C(=O)N[C@@H](C(=O)N[C@H](C(=O)N[C@@H](C(=O)N[C@@H](Cc1c[nH]c2ccccc12)C(=O)N[C@@H](C(=O)N[C@@H](Cc1c[nH]c2ccccc12)C(=O)N[C@@H](C(=O)N[C@@H](Cc1c[nH]c2ccccc12)C(=O)N[C@@H](C(=O)N[C@@H](Cc1c[nH]c2ccccc12)C(=O)NCCO)C(C)C)C(C)C)C(C)C)C(C)C)C(C)C)C(C)C)C(C)C` [compound 4223] (For-VGA[dV]A[dV]V[dV]W[dV]W[dV]W[dV]W-NHCH2CH2OH) displayed a viability of 95.6%. The antibacterial activity result in series [2] is “+”. The “H+/Na+ transport activity normalized” value in series [3] is listed as 1.09.
On the same counts, the results for `CC(C)C[C@@H](NC(=O)[C@H](C)NC(=O)[C@H](NC(=O)[C@H](C)NC(=O)CNC(=O)[C@@H](NC=O)C(C)C)C(C)C)C(=O)N[C@H](C(=O)N[C@@H](C(=O)N[C@@H](Cc1c[nH]c2ccccc12)C(=O)N[C@@H](C(=O)N[C@@H](Cc1c[nH]c2ccccc12)C(=O)N[C@@H](C(=O)N[C@@H](Cc1c[nH]c2ccccc12)C(=O)N[C@@H](C(=O)N[C@@H](Cc1c[nH]c2ccccc12)C(=O)NCCO)C(C)C)[C@H](C)O)C(C)C)C(C)C)C(C)C` [compound 4258] (For-VGA[dV]A[dL]V[dV]W[dV]W[dT]W[dV]W-NHCH2CH2OH) are 85.9%, “-” and 1.00.
On the same counts, the results for `CC(C)C[C@@H](NC(=O)[C@H](C)NC(=O)[C@H](NC(=O)[C@H](C)NC(=O)CNC(=O)[C@@H](NC=O)C(C)C)C(C)C)C(=O)N[C@H](C(=O)N[C@H](CC(C)C)C(=O)N[C@@H](Cc1c[nH]c2ccccc12)C(=O)N[C@H](CC(C)C)C(=O)N[C@@H](Cc1c[nH]c2ccccc12)C(=O)N[C@@H](C(=O)N[C@@H](Cc1c[nH]c2ccccc12)C(=O)N[C@@H](C(=O)N[C@@H](Cc1c[nH]c2ccccc12)C(=O)NCCO)[C@H](C)O)[C@H](C)O)C(C)C` [compound 4322] (For-VGA[dV]A[dL]V[dL]W[dL]W[dT]W[dT]W-NHCH2CH2OH) are 100%, “-” and 1.05.
For `CC(C)C[C@@H](NC(=O)[C@H](C)NC(=O)CNC(=O)[C@@H](NC=O)C(C)C)C(=O)N[C@@H](C)C(=O)N[C@@H](C(=O)N[C@H](C(=O)N[C@H](CC(C)C)C(=O)N[C@@H](Cc1c[nH]c2ccccc12)C(=O)N[C@H](CC(C)C)C(=O)N[C@@H](Cc1c[nH]c2ccccc12)C(=O)N[C@@H](C(=O)N[C@@H](Cc1c[nH]c2ccccc12)C(=O)N[C@@H](C(=O)N[C@@H](Cc1c[nH]c2ccccc12)C(=O)NCCO)[C@H](C)O)[C@H](C)O)C(C)C)C(C)C` [compound 4328] (For-VGA[dL]A[dV]V[dL]W[dL]W[dT]W[dT]W-NHCH2CH2OH), in that order: 100%, “+” and 1.13.
`CC(C)C[C@@H](NC(=O)[C@H](Cc1c[nH]c2ccccc12)NC(=O)[C@H](NC(=O)[C@@H](NC(=O)[C@H](NC(=O)[C@H](C)NC(=O)[C@H](NC(=O)[C@H](C)NC(=O)CNC(=O)[C@@H](NC=O)C(C)C)[C@H](C)O)C(C)C)C(C)C)C(C)C)C(=O)N[C@@H](Cc1c[nH]c2ccccc12)C(=O)N[C@H](CC(C)C)C(=O)N[C@@H](Cc1c[nH]c2ccccc12)C(=O)N[C@@H](C(=O)N[C@@H](Cc1c[nH]c2ccccc12)C(=O)NCCO)C(C)C` [compound 4452] (For-VGA[dT]A[dV]V[dV]W[dL]W[dL]W[dV]W-NHCH2CH2OH) returned a viability in series [1] of 100%. Also, the antibacterial activity entry in series [2] is given as “-”. Further, the “H+/Na+ transport activity normalized” value in series [3] is on record as 1.30.
On the same counts, the results for `CC(C)C[C@@H](NC(=O)[C@H](Cc1c[nH]c2ccccc12)NC(=O)[C@H](NC(=O)[C@@H](NC(=O)[C@H](NC(=O)[C@H](C)NC(=O)[C@H](NC(=O)[C@H](C)NC(=O)CNC(=O)[C@@H](NC=O)C(C)C)C(C)C)C(C)C)C(C)C)C(C)C)C(=O)N[C@@H](Cc1c[nH]c2ccccc12)C(=O)N[C@H](CC(C)C)C(=O)N[C@@H](Cc1c[nH]c2ccccc12)C(=O)N[C@@H](C(=O)N[C@@H](Cc1c[nH]c2ccccc12)C(=O)NCCO)[C@H](C)O` [compound 4603] (For-VGA[dV]A[dV]V[dV]W[dL]W[dL]W[dT]W-NHCH2CH2OH) are 100%, “++” and 1.12.
For `CC(C)C[C@@H](NC(=O)[C@H](C)NC(=O)[C@H](NC(=O)[C@H](C)NC(=O)CNC(=O)[C@@H](NC=O)C(C)C)[C@H](C)O)C(=O)N[C@H](C(=O)N[C@@H](C(=O)N[C@@H](Cc1c[nH]c2ccccc12)C(=O)N[C@H](CC(C)C)C(=O)N[C@@H](Cc1c[nH]c2ccccc12)C(=O)N[C@H](CC(C)C)C(=O)N[C@@H](Cc1c[nH]c2ccccc12)C(=O)N[C@@H](C(=O)N[C@@H](Cc1c[nH]c2ccccc12)C(=O)NCCO)C(C)C)C(C)C)C(C)C` [compound 4605] (For-VGA[dT]A[dL]V[dV]W[dL]W[dL]W[dV]W-NHCH2CH2OH), in that order: 100%, “-” and 1.35.
